# Experiments:
# ZNF417 = test: LC-MS/MS proteome profiling; format: cell-based, Homo sapiens; details: SK5527 vs DMSO (24h)
# Method: Analysis of the mass spectrometry data was performed in DiaNN (version 1.9). Precursor false discovery rate was set at 1%. Spectra were searched against the Homo sapiens protein sequences in the Uniprot database (database release version of 2024_01), containing 20,597 sequences (www.uniprot.org) and the imbedded protein contaminant list. Enzyme specificity was set as C-terminal to arginine and lysine, also allowing cleavage at proline bonds with a maximum of 2 missed cleavages. Variable modifications were set to oxidation of methionine residues and acetylation of protein N-termini while fixed modification was set to carbamidomethylation of cystein residues. Matching between runs was enabled. Mainly default settings were used, except for the addition of a 400-900 m/z precursor mass range filter and MS1 and MS2 mass tolerance was set to 10 and 20 ppm respectively.
# Further data analysis of the results was performed with an in-house script in the R programming language.
# Protein expression matrices were prepared as follows: the DIA-NN main report output table was filtered at a precursor and protein library q-value cut-off of 1 % and only proteins identified by at least one proteotypic peptide were retained. After pivoting into a wide format, iBAQ intensity columns were then added to the matrix using the DIAgui’s R package get_IBAQ function. PG MaxLFQ intensities were log2 transformed and replicate samples were grouped. Proteins with less than 3 valid values in at least one group were removed and missing values were imputed from a normal distribution centered around the detection limit (package DEP) leading to a list of 7,759 quantified proteins in the experiment, used for further data analysis. […]
# Statistical significance for differential regulation was set to a false discovery rate (FDR) of < 0.05 and |log2FC| = 2.
# AURKA = target: T1, AURKA (Homo sapiens, UniProt O14965); test: LC-MS/MS proteome profiling; format: cell-based; set-up: endogenous in cells; host or cells: IMR-32; key to Significant (3h SK5527vs3h DMSO) FDR0 05 / Significant (24h SK5527vs24h DMSO) FDR0 05: +: Statistical significance for differential regulation was set to a false discovery rate (FDR) of < 0.05 and |log2FC| = 2
# T1 sequence (O14965 1-403): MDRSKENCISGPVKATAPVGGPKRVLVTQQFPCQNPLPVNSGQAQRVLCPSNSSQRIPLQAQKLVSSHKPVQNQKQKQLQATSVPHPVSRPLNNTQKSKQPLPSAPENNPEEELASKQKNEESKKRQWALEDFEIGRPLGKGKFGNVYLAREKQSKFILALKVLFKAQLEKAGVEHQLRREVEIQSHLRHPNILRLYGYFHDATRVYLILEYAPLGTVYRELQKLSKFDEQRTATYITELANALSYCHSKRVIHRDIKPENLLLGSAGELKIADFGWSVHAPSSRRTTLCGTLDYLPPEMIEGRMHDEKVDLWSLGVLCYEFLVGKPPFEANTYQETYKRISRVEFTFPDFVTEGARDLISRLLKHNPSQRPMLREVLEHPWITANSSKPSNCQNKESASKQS
# Method: IMR-32 cells were seeded in T-25 flasks at a density of 1.7 million cells/flask and treated the next day with DMSO (negative control), SK5527 (500 nM) or MK-5108 (500 nM) for 3 or 24 h (data for MK-5108 not discussed in this manuscript). Cell pellets were harvested at the respective time points, lysed, and the concentration of the obtained protein lysates measured as previously described. Details on further sample preparation, LC–MS/MS, and data analysis can be found in the Supporting Information. The LC–MS/MS proteomics data have been deposited to the ProteomeXchange Consortium via the PRIDE partner repository with the data set identifier PXD061539.
# Supplementary Methods 1 – LC-MS/MS proteomics
# From each sample, 100 µg of protein was isolated, the volumes were equalized with water and SDS and TEAB were added to a final concentration of 5% and 50 mM, respectively. Proteins were reduced and alkylated by addition of 10 mM Tris(2-carboxyethyl)phosphine hydrochloride and 40 mM chloroacetamide and incubation for 30 minutes at 25°C in the dark. Phosphoric acid was added to a final concentration of 1.2%, and samples were subsequently diluted 7-fold with binding buffer containing 90% methanol in 100 mM TEAB, pH 7.55. The samples were loaded on the 96-well S-Trap™ plate (Protifi), placed on top of a deepwell plate, and centrifuged for 2 min at 1,500 x g at RT. After protein binding, the S-trap™ plate was washed three times by adding 200 µl binding buffer and centrifugation for 2 min at 1,500 x g at RT. A new deepwell receiver plate was placed below the 96-well S-Trap™ plate and 50 mM TEAB containing trypsin (1/100, w/w) was added for digestion overnight at 37°C.
# Using centrifugation for 2 min at 1,500 x g, peptides were eluted in three steps, first with 80 µl 50 mM TEAB, then with 80 µl 0.2% formic acid (FA) in water and finally with 80 µl 0.2% FA in water/acetonitrile (ACN) (50/50, v/v). Eluted peptides were dried completely by vacuum centrifugation.
# Peptides were re-dissolved in 20 µl loading solvent A (0.1% trifluoroacetic acid in water/acetonitrile (ACN) (99.5:0.5, v/v)) of which 2 µl of sample was injected for LC-MS/MS analysis on an Ultimate 3000 ProFlow nanoLC system in-line connected to a Orbitrap Exploris 240 mass spectrometer (Thermo) equipped with pneu-Nimbus dual ion source (Phoenix S&T). Trapping was performed at 20 μl/min for 2 min in loading solvent A on a PepMap™ Neo Trap column (Thermo scientific, 300 μm internal diameter (I.D.), 5 μm beads). The peptides were separated on a 250 mm Odyssey Ultimate, 1.7µm C18, 75 µm inner diameter (Ionopticks) kept at a constant temperature of 45°C. Peptides were eluted by a gradient reaching 26,4 % MS solvent B (0.1% FA in acetonitrile) after 80 min, 44% MS solvent B at 95 min, 56% MS solvent B at 100min followed by a 5-minutes wash at 56% MS solvent B and re-equilibration with MS solvent A (0.1% FA in water). The flow rate was set to 250 nl/min. The mass spectrometer was operated in data-independent mode, automatically switching between MS and MS/MS acquisition. Full-scan MS spectra ranging from 375-1500 m/z with a normalized target value of 300%, a maximum fill time of 25 ms and a resolution at of 60,000 were followed by 30 quadrupole isolations with a precursor isolation width of 10 m/z for HCD fragmentation at an NCE of 30% after filling the trap at a normalized target value of 2000% for maximum injection time of 45 ms. MS2 spectra were acquired at a resolution of 15,000 with a scan range of 200-1800 m/z in the Orbitrap analyser without multiplexing. The isolation intervals were set from 400 – 900 m/z with a width of 10 m/z using window placement optimization. The polydimethylcyclosiloxane background ion at 445.120028 Da was used for internal calibration (lock mass) and QCloud has been used to control instrument longitudinal performance during the project.
# Analysis of the mass spectrometry data was performed in DiaNN (version 1.9). Precursor false discovery rate was […]
# set at 1%. […]
smiles,measurement,setting,value
Cc1cc(Nc2ccc(F)c(CC3(C(=O)N4CCC(F)(CN5CCN(c6ccc(N7CCC(=O)NC7=O)cn6)CC5)CC4)CCN(Cc4cccc(Cl)c4F)CC3)n2)n[nH]1 [SK5527],logFC ZNF417,ZNF417,-2.12
same,Significant (3h SK5527vs3h DMSO) FDR0 05,"AURKA; IMR-32, 3h",+
same,logFC (3h SK5527vs3h DMSO),"AURKA; IMR-32, 3h",-3.27
same,Significant (24h SK5527vs24h DMSO) FDR0 05,"AURKA; IMR-32, 24h",+
same,logFC (24h SK5527vs24h DMSO),"AURKA; IMR-32, 24h",-3.1
same,logFC AURKA,AURKA; SK5527 vs DMSO (3h),-3.27
same,logFC AURKA,AURKA; SK5527 vs DMSO (24h),-3.1

# — paper PMC12670405, “Second-Generation AURKA-Targeting PROTACs: Structural Optimization toward in Vivo Degradation in Neuroblastoma” (Journal of Medicinal Chemistry, 2025)
